Experimental data reported in ChEMBL document CHEMBL1128838, “Synthesis of antiparasitic licorice chalcones” (1995).

Columns and labels:
[1] = Evaluated for the PHA (phytohemagglutininin A) induced proliferation of human peripheral lymphocytes at a dose of 10 ug/ml; assay type: functional
[2] = Evaluated for the PHA (phytohemagglutininin A) induced proliferation of human peripheral lymphocytes at a dose of 5 ug/ml; assay type: functional
[3] = Evaluated for the PHA (phytohemagglutininin A) induced proliferation of human peripheral lymphocytes at a dose of 20 ug/ml; assay type: functional
Leishmania major [4] = assay: Antiparasitic activity was estimated by ability to inhibit the in vitro growth of Leishmania major measured by the decreased uptake of [3H]thymidine at 1 ug/mL; assay type: functional
[5] = Evaluated for the PHA (phytohemagglutininin A) induced proliferation of human peripheral lymphocytes at a dose of 1 ug/ml; assay type: functional
Leishmania major [6] = assay: Antiparasitic activity was estimated by ability to inhibit the in vitro growth of Leishmania major measured by the decreased uptake of [3H]thymidine at 5 ug/mL; assay type: functional
Leishmania major [7] = assay: Antiparasitic activity was estimated by ability to inhibit the in vitro growth of Leishmania major measured by the decreased uptake of [3H]-thymidine at 20 ug/mL; assay type: functional
Leishmania major [8] = assay: Antiparasitic activity was estimated by ability to inhibit the in vitro growth of Leishmania major measured by the decreased uptake of [3H]thymidine at 10 ug/mL; assay type: functional
Leishmania donovani [9] = assay: Inhibition of [3H]-thymidine uptake in amastigotes of Leishmania donovani in infected human peripheral blood monocyte derived macrophages at a dose of 10 ug/ml; assay type: functional
[10] = Evaluated for the PHA (phytohemagglutininin A) induced proliferation of human peripheral lymphocytes at a dose of 50 ug/ml; assay type: functional
Leishmania major [11] = assay: Antiparasitic activity was estimated by ability to inhibit the in vitro growth of Leishmania major measured by the decreased uptake of [3H]thymidine at 25 ug/mL; assay type: functional
Leishmania donovani [12] = assay: Inhibition of [3H]thymidine uptake in amastigotes of Leishmania donovani in infected human peripheral blood monocyte derived macrophages at a dose of 5 ug/ml; assay type: functional
[13] = Evaluated for the PHA (phytohemagglutininin A) induced proliferation of human peripheral lymphocytes at a dose of 25 ug/ml; assay type: functional
Leishmania donovani [14] = assay: Inhibition of [3H]thymidine uptake in amastigotes of Leishmania donovani in infected human peripheral blood monocyte derived macrophages at a dose of 0.5 ug/ml; assay type: functional
Leishmania major [15] = assay: Antiparasitic activity was estimated by ability to inhibit the in vitro growth of Leishmania major measured by the decreased uptake of [3H]thymidine at 50 ug/mL; assay type: functional
Leishmania major [16] = assay: Antiparasitic activity was estimated by ability to inhibit the in vitro growth of Leishmania major measured by the decreased uptake of [3H]thymidine at 100 ug/mL; assay type: functional
[17] = Evaluated for the PHA (phytohemagglutininin A) induced proliferation of human peripheral lymphocytes at a dose of 100 ug/ml; assay type: functional
Leishmania donovani [18] = assay: Inhibition of [3H]thymidine uptake in amastigotes of Leishmania donovani in infected human peripheral blood monocyte derived macrophages at a dose of 1 ug/ml; assay type: functional
Leishmania major [19] = assay: Compound was tested for its ability to inhibit the growth of Leishmania major at a dose of 1 ug/ml; assay type: functional, organism-based
Leishmania major [20] = assay: Compound was tested for its ability to inhibit the growth of Leishmania major at a dose of 10 ug/ml; assay type: functional, organism-based
Leishmania major [21] = assay: Compound was tested for its ability to inhibit the growth of Leishmania major at a dose of 100 ug/ml; assay type: functional, organism-based

Compound	inhibition at 10 µg/mL [1]	inhibition at 5 µg/mL [2]	inhibition at 20 µg/mL [3]	inhibition at 1 µg/mL (Leishmania major [4])	inhibition at 1 µg/mL [5]	inhibition at 5 µg/mL (Leishmania major [6])	inhibition at 20 µg/mL (Leishmania major [7])	inhibition at 10 µg/mL (Leishmania major [8])	also measured
COc1c(/C=C/C(=O)c2ccc(O)cc2)ccc(O)c1CC=C(C)C	30.4%	14.8%	73.2%	3.9%	5.5%	20.7%	93.8%	51.5%	
COc1cc(O)ccc1/C=C/C(=O)c1ccc(O)cc1 [ECHINATIN]	9.2%	7.8%				16.4%		30%	inhibition at 10 µg/mL (Leishmania donovani [9]): 94%; inhibition at 50 µg/mL [10]: 18%; inhibition at 25 µg/mL (Leishmania major [11]): 50.3%; inhibition at 5 µg/mL (Leishmania donovani [12]): 92%; inhibition at 25 µg/mL [13]: 10.4%; inhibition at 0.5 µg/mL (Leishmania donovani [14]): 57%; inhibition at 50 µg/mL (Leishmania major [15]): 69.3%; inhibition at 100 µg/mL (Leishmania major [16]): 86.8%; inhibition at 100 µg/mL [17]: 26.4%; inhibition at 1 µg/mL (Leishmania donovani [18]): 62%
C=CC(C)(C)c1cc(/C=C/C(=O)c2ccc(O)cc2)c(OC)cc1O [LICOAGROCHACONE A]	39.7%	20.8%	65.3%	3.6%	4.7%	63.9%	96%	91.9%	
Pentostam									inhibition (Leishmania major [19]): 18%; inhibition (Leishmania major [20]): 35%; inhibition (Leishmania major [21]): 95%
